Reference: patent US8173144B2, “Administration of urea compounds for combating signs of cutaneous aging” (L'Oreal, priority 2004, dated 2012)

Tested on: acid proteases of the SC (stratum corneum)
Experiment: Activation of acid proteases of the stratum corneum (Enzchek fluorimetry, Bodipy FL casein substrate)
Format: biochemical
Protocol: The property of activating certain acid proteases of the SC (stratum corneum) is evaluated. This activity is measured by virtue of a quantitative determination by fluorimetry using the Enzchek kit (Molecular Probes). This protocol uses a Bodipy FL casein substrate which releases fluorescence when it is hydrolyzed. The fluorescence released is directly proportional to the protease activity. It is read directly in a 96-well plate with a spectrofluorimeter at 750 V at 485 nm in excitation and 535 nm in emission.
The molecules are prepared at 0, 1, 2 and 4M in a 0.1M; pH 5.0; acetate buffer.
An enzyme extract is prepared from acetone powders.
2 ml of PBS buffer+0.1% of Triton X100 are brought into contact for 1 h in crushed ice with 200 mg of stratum corneum acetone powders. The mixture is subsequently ground in a Potter homogenizer and then centrifuged at 15 000 g for 10 min at 4° C. The supernatant is collected. The Enzchek substrate, diluted to 1/200, is incorporated in each solution comprising the molecules. The assays are repeated three times.
The reaction mixture is prepared directly in a white plate.
10 μl of enzyme extract are added to 200 μl of solution comprising the substrate at 0, 1, 2 or 4M. The readings are carried out at t0, t 2h, t 16h and t 24h.

[1] = 1 and 2M in 0.1M acetate buffer pH 5.0, readings t0, t 2h, t 16h, t 24h

NC(=O)NCCO [N-(2-hydroxethyl)urea, N-(2-hydroxyethyl)urea]
acid protease activity (fluorescence) with respect to the control [1]: significant increase in the activity
acid protease activity (fluorescence) with respect to the control (4M in 0.1M acetate buffer pH 5.0, whatever the time studied): marked decrease in the activity

NC(N)=O [Urea, urea]
acid protease activity (fluorescence) with respect to the control [1]: slightly activating effect on the acid proteases up to two hours
